Data reported in PubChem BioAssay (NCI).
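Tested at 5 concentrations; 48 h exposure; 96-well plates; endpoints linearly interpolated, else capped at highest concentration. The concentration for full growth arrest is given as TGI.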

Test system: OVCAR-3 ovarian
Experiment: DTP human tumour cell line panel, 48 h

| Compound | TGI [µM] |
| --- | --- |
| CC(=O)O[C@H]1CC[C@H]2[C@@H]3CCC4C(C)=NNC(=O)C4[C@H]3CC[C@]12C (some centres not stated) | > 100 |
| COc1cc2c[n+](C)c3c4cc5c(cc4ccc3c2cc1OC)OCO5 | 9.39 |
| O=c1[nH]c(C23CC4CC(CC(C4)C2)C3)cc2c1c(=O)oc1ccccc12 | 17.5 |
| CCN(CC)C(=C(C(Cl)=C(Cl)Cl)[N+](=O)[O-])N(CC)CC | > 100 |
| O=C1C(=O)c2c(oc(=O)c3ccccc23)-c2ccccc21 | > 25 |
| CCOC(=O)C(C(=O)OCC)=C1NC2(c3ccccc3Nc3ccc(C)cc32)C(C#N)S1 (configuration not stated) | 8.44 |
| CN1CCC2(CC1)SC[C@H]1C(=O)N(c3ccc(Cl)cc3)C(=O)N12 | > 100 |
| CC(C)=CCC[C@@H](C)C1=C(O)C(O)C(C)=C2N=C(c3ccccc3)C(=O)OC21 (some centres not stated) | > 25 |
| CC(C)(C)[Si](C)(C)O[C@@H](C(=O)OC1C=CCCC1)[C@@H](NC(=O)c1ccccc1)c1ccccc1 (some centres not stated) | > 100 |
| Cc1oc2c(c1C)S(=O)(=O)C(C#N)=C(c1ccccc1)N2 | > 100 |
| O=C1c2ccccc2C(O)(C(=O)O)C1(O)CC=C(Cl)Cl (configuration not stated) | > 125 |
| CC(=O)O[C@@H]1CC[C@@]2(C)C(CC[C@H]3[C@@H]4CC[C@H]([C@H](C)CCc5nc6ccc(C)cc6[nH]5)[C@@]4(C)CC[C@@H]32)C1 (some centres not stated) | > 100 |
| COc1cccc(OC/C(N=Cc2cccnc2)=N/NC(=O)c2ccncc2)c1 | > 100 |
| C/C1=C/C(C)CC(C)OC(=O)C(C)NC(=O)C(Cc2ccc(O)c(I)c2)N(C)C(=O)CNC(=O)C(C)C1 (configuration not stated) | < 0.01 |
| Cc1ccc(-n2cnc3c(N)nc(N)nc32)cc1 | > 100 |
| CC12CCC3[C@@H](CC3(C)C)C(O)(CCC1=O)C2 (some centres not stated) | > 100 |
| CO[C@H]1c2cccc3cccc(c23)[C@@H]1n1[nH]c(=O)n(C(C)(C)C)c1=O | > 100 |
| CCCCCCCCCCCCCCCCCCNc1ccn(C2OC(COP(=O)(O)OC3CC(n4cc(F)c(=O)[nH]c4=O)OC3COP(=O)(O)OCC3OC(n4ccc(N)nc4=O)C(O)C3O)C(O)C2O)c(=O)n1 (configuration not stated) | > 100 |

Test system: SK-OV-3 ovarian
Experiment: DTP human tumour cell line panel, 48 h

| Compound | TGI [µM] |
| --- | --- |
| Nc1nc(N)c2cc(Sc3ccc4nc(N)nc(N)c4c3)ccc2n1 | > 100 |
| N#CC(C#N)N=Cc1ccncc1 | > 100 |
| COc1ccc2c(c1)/C(=C\c1c(C)nc3n1CCS3)C(=O)N2 | 63.3 |
| COC(=O)C1=C(O)C(C(=O)OC)[C@]2(O)[C@H](C(=O)OC)[C@H]1C[C@@H](c1ccc(F)cc1)[C@H]2C(=O)OC (some centres not stated) | 77.6 |
| CCN(CC)c1cc2c3c(c1)CCCN3CCC2 | > 10 |
| CN(C)C=C1C(=O)c2c(Br)sc(Br)c2C1=O | 62.7 |
| CC(=O)O[C@H]1CC[C@H]2[C@@H]3CCC4C(C)=NNC(=O)C4[C@H]3CC[C@]12C (some centres not stated) | > 100 |
| COc1cc2c[n+](C)c3c4cc5c(cc4ccc3c2cc1OC)OCO5 | 5.64 |
| O=c1[nH]c(C23CC4CC(CC(C4)C2)C3)cc2c1c(=O)oc1ccccc12 | 11 |
| CCN(CC)C(=C(C(Cl)=C(Cl)Cl)[N+](=O)[O-])N(CC)CC | > 100 |
| O=C1C(=O)c2c(oc(=O)c3ccccc23)-c2ccccc21 | > 25 |
| CCOC(=O)C(C(=O)OCC)=C1NC2(c3ccccc3Nc3ccc(C)cc32)C(C#N)S1 (configuration not stated) | 98.9 |
| CN1CCC2(CC1)SC[C@H]1C(=O)N(c3ccc(Cl)cc3)C(=O)N12 | > 100 |
| CC(C)=CCC[C@@H](C)C1=C(O)C(O)C(C)=C2N=C(c3ccccc3)C(=O)OC21 (some centres not stated) | 11.1 |
| Cc1cc([C@H](C#N)c2nc3ccccc3[nH]2)nc(Cl)n1 | > 100 |
| CC(C)(C)[Si](C)(C)O[C@@H](C(=O)OC1C=CCCC1)[C@@H](NC(=O)c1ccccc1)c1ccccc1 (some centres not stated) | > 100 |
| Cc1oc2c(c1C)S(=O)(=O)C(C#N)=C(c1ccccc1)N2 | > 100 |
| O=C1c2ccccc2C(O)(C(=O)O)C1(O)CC=C(Cl)Cl (configuration not stated) | > 125 |
| CC(=O)O[C@@H]1CC[C@@]2(C)C(CC[C@H]3[C@@H]4CC[C@H]([C@H](C)CCc5nc6ccc(C)cc6[nH]5)[C@@]4(C)CC[C@@H]32)C1 (some centres not stated) | > 100 |
| COc1cccc(OC/C(N=Cc2cccnc2)=N/NC(=O)c2ccncc2)c1 | > 100 |
| C/C1=C/C(C)CC(C)OC(=O)C(C)NC(=O)C(Cc2ccc(O)c(I)c2)N(C)C(=O)CNC(=O)C(C)C1 (configuration not stated) | 2.16 |
| Cc1ccc(-n2cnc3c(N)nc(N)nc32)cc1 | > 100 |
| CC12CCC3[C@@H](CC3(C)C)C(O)(CCC1=O)C2 (some centres not stated) | > 100 |
| CO[C@H]1c2cccc3cccc(c23)[C@@H]1n1[nH]c(=O)n(C(C)(C)C)c1=O | > 100 |
| CCCCCCCCCCCCCCCCCCNc1ccn(C2OC(COP(=O)(O)OC3CC(n4cc(F)c(=O)[nH]c4=O)OC3COP(=O)(O)OCC3OC(n4ccc(N)nc4=O)C(O)C3O)C(O)C2O)c(=O)n1 (configuration not stated) | > 58.8 |

Test system: SNB-19 CNS
Experiment: DTP human tumour cell line panel, 48 h

| Compound | TGI [µM] |
| --- | --- |
| Nc1nc(N)c2cc(Sc3ccc4nc(N)nc(N)c4c3)ccc2n1 | > 100 |
| COc1ccc2c(c1)/C(=C\c1c(C)nc3n1CCS3)C(=O)N2 | > 100 |
| COC(=O)C1=C(O)C(C(=O)OC)[C@]2(O)[C@H](C(=O)OC)[C@H]1C[C@@H](c1ccc(F)cc1)[C@H]2C(=O)OC (some centres not stated) | > 100 |
| CCN(CC)c1cc2c3c(c1)CCCN3CCC2 | > 10 |
| CN(C)C=C1C(=O)c2c(Br)sc(Br)c2C1=O | 80.4 |
| CC(=O)O[C@H]1CC[C@H]2[C@@H]3CCC4C(C)=NNC(=O)C4[C@H]3CC[C@]12C (some centres not stated) | > 82.9 |
| COc1cc2c[n+](C)c3c4cc5c(cc4ccc3c2cc1OC)OCO5 | 21.5 |
| O=c1[nH]c(C23CC4CC(CC(C4)C2)C3)cc2c1c(=O)oc1ccccc12 | 17.7 |
| CCN(CC)C(=C(C(Cl)=C(Cl)Cl)[N+](=O)[O-])N(CC)CC | > 100 |
| O=C1C(=O)c2c(oc(=O)c3ccccc23)-c2ccccc21 | > 25 |
| CCOC(=O)C(C(=O)OCC)=C1NC2(c3ccccc3Nc3ccc(C)cc32)C(C#N)S1 (configuration not stated) | 30.8 |
| CN1CCC2(CC1)SC[C@H]1C(=O)N(c3ccc(Cl)cc3)C(=O)N12 | > 100 |
| CC(C)=CCC[C@@H](C)C1=C(O)C(O)C(C)=C2N=C(c3ccccc3)C(=O)OC21 (some centres not stated) | > 25 |
| Cc1cc([C@H](C#N)c2nc3ccccc3[nH]2)nc(Cl)n1 | > 100 |
